Test results taken from patent US20160138077A1, “MONITORING AND ASSESSING DEACETYLASE ENZYME ACTIVITY” (THE GENERAL HOSPITAL CORPORATION, priority 2013, published 2016).

What was measured:
HeLa cells = assay: Determination of HDAC activity in HeLa cells by LC-MS; type: cell-based; settings: live HeLa cells, 5 μM, over 24 h
Description: HeLa cell culture and treatment with HP-1 and HP-2. HeLa cells (ATCC) were grown as a monolayer in Eagles Minimum Essential Medium (EMEM, GIBCO, BRL, Gaithersburg, Md.) with 10% Fetal Bovine Serum (FBS, GIBCO, BRL, Gaithersburg, Md.) and 1% penicillin/streptomycin ([…]). All cell culture dishes were maintained in a humidified atmosphere with 5% CO2 at 37° C.
Determination of HDAC activity in HeLa cells by LC-MS. HDAC activity in HeLa cells was analyzed by performing an LCMS assay. Solutions of HP-1 and HP-2 (200 mM each) were prepared in DMSO and diluted in HDAC buffer to a final concentration of 100 μM. […] Cells were scraped off of the flask, lysed in milipore water (90 μL) using a mechanical homogenizer, centrifuged (at 14,000×g for 2 min) and 20 μL aliquot of supernatant from each sample was analyzed by LCMS. […] The peak area for each detected compound was measured to determine the % conversion. For HP-1, the corresponding (M+H)^+ ion was detected. […] The peak area for each detected compound was measured to determine the % conversion of each probe. […]
Determination of HDAC activity in HeLa cells by LC-MS. […] Cells were scraped off of the flask, lysed in Millipore water using a mechanical homogenizer, and supernatant of the lysed samples were analyzed by LC-MS. […] The peak area for each detected compound was measured to determine the % conversion versus time (full experimental details in Example 1).

HDAC1 = biological target: T1, HDAC1 (Homo sapiens, UniProt Q13547); assay: HDAC1 IC50 (Trypsin-coupled assay and Caliper endpoint assay); type: biochemical; settings: competitive inhibition with a peptide substrate
T1 construct: purchased Cayman Chemicals
T1 sequence (Q13547 whole entry): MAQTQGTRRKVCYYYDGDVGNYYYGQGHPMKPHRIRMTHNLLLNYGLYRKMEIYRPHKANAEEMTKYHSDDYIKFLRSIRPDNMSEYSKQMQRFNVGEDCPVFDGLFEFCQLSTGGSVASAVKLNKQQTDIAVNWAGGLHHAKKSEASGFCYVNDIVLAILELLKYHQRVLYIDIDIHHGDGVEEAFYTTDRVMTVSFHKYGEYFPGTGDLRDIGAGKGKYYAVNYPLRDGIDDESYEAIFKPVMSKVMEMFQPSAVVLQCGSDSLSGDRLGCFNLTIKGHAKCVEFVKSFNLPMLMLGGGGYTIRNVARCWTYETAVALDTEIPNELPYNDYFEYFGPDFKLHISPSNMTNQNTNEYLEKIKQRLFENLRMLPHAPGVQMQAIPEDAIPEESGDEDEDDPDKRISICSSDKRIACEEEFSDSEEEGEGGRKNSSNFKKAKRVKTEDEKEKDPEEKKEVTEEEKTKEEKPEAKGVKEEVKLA
Description: HP-1 and HP-2 IC50 values for HDAC1 were determined using the Trypsin-coupled assay as well as the Caliper endpoint assay. HP-1 and HP-2 IC50 values for HDAC2, HDAC3, HDAC6 and HDAC8 were determined with the Caliper endpoint assay.
In vitro HDAC 1 end point enzymatic assays were performed in optimized 96-well format as previously described^3,4 with the following modifications. Reactions were performed in volume of 120 uL with 30 ng of full-length, recombinant HDAC1 (BPS Biosciences). TCEP was excluded from the assay buffer. HDAC1 was pre-incubated with varying concentrations of HP-1 or HP-2, or DMSO vehicle for 30 minutes. Fluorophore-conjugated acetyl-lysine tripeptide substrate was added at a concentration equivalent to the substrate Km, 11 uM, and the deacetylation reaction was allowed to run for 45 minutes at RT. […] Fluorescence intensity of the aminomethylcoumarin liberated by deacetylase and trypsin enzymatic activity was monitored at 460 nm using a multilabel plate reader (EnVision, Perkin-Elmer) every 5 minutes until stable, about 25 minutes. […]
IC50 measurements. HP-1 and HP-2 IC50 values for HDAC1 were determined using the Trypsin-coupled assay as well as the Caliper endpoint assay. HP-1 and HP-2 IC50 values for HDAC2, HDAC3, HDAC6 and HDAC8 were determined with the Caliper endpoint assay (full experimental details in Example 1).

CC(=O)NC=CCCCCNC(=O)CCCCCNc1ccc([N+](=O)[O-])c2nonc12 [HP-1]
HP-1 cleaved (HeLa cells; absence of SAHA, LCMS of supernatants and lysates): 80% | Cleavage of HP-1 (HeLa cells; addition of SAHA (10 μM)): 20% | IC50 (HDAC1; HDAC1, table does not say whether Trypsin-coupled or Caliper assay): 35.8 µM | inhibition of HDAC1 (in words) (HDAC1): weakly inhibit
